Assay: MARINE: RBC fatty acid concentrations, ratios and class proportions (GC/FID)
Format: in vivo, human
Protocol: A multi-center, placebo-controlled randomized, double-blind, 12-week study with an open-label extension is performed to evaluate the efficacy and safety of AMR101 in patients with fasting triglyceride levels≥500 mg/dL. The primary objective of the study is to determine the efficacy of AMR101 2 g daily and 4 g daily, compared to placebo, in lowering fasting TG levels in patients with fasting TG levels≥500 mg/dL and ≤1500 mg/dL (≥5.65 mmol/L and ≤16.94 mmol/L).
Eligible patients will be randomly assigned at Visit 4 (Week 0) to receive orally AMR101 2 g daily, AMR101 4 g daily, or placebo for the 12-week double-blind treatment period. AMR101 is provided in 1 g liquid-filled, oblong, gelatin capsules. The matching placebo capsule is filled with light liquid paraffin and contains 0 g of AMR101. During the double-blind treatment period, patients will take 2 capsules (AMR101 or matching placebo) in the morning and 2 in the evening for a total of 4 capsules per day. Patients in the AMR101 2 g/day treatment group will receive 1 AMR101 1 g capsule and 1 matching placebo capsule in the morning and in the evening. Patients in the AMR101 4 g/day treatment group will receive 2 AMR101 1 g capsules in the morning and evening.
Lipids were extracted from plasma and RBC suspensions and converted into fatty acid methyl esters for analysis using a standard validated gas chromatography/flame ionization detection method. Fatty acid parameters were compared between EPA treatment groups and placebo using an ANCOVA model with treatment, gender, type of statin therapy, and presence of diabetes as factors, and the baseline parameter value as a covariate. LSMs, SEs, and 2-tailed 95% confidence intervals for each treatment group and for each comparison were determined.
The monounsaturated fatty acid group included myristoleic, palmitoleic, cis-vaccenic, oleic, gondoic/gadoleic, erucic and nervonic acids. The saturated fatty acid group included myristic, palmitic, stearic, arachidic, behenic and lignoceric acids. The “total omega-3” group included α-linolenic, stearidonic, eicosatrienoic, ω-3 arachidonic, eicosapentaenoic, ω-3 docosapentaenoic and docosahecaenoic acids. The “total omega-6” group included linoleic, γ-linolenic, eicosadienoic, dihomo-γ-linolenic, ω-6 arachidonic, adrenic, and ω-6 docosapentaenoic acids. The “total fatty acid” group represented the sum of the monounsaturated, saturated, total omega-3 and total omega-6 groups.

[1] = red blood cell, IPE 4 g/day vs placebo, week 12, P <0.0001

CC/C=C\C/C=C\C/C=C\C/C=C\C/C=C\CCCC(=O)OCC [IPE, all-cis eicosa-5,8,11,14,17-pentaenoic acid ethyl ester]
Mono-unsaturated, proportion to total fatty acids, Mean placebo-adjusted percent change from baseline (RBCs, IPE 2 g/day vs placebo, P 0.0435): −3.1% | Saturated, proportion to total fatty acids, Mean placebo-adjusted percent change from baseline (RBCs, IPE 2 g/day vs placebo, P 0.3278): 1.1% | Mono-unsaturated, proportion to total fatty acids, Mean placebo-adjusted percent change from baseline (RBCs, IPE 4 g/day vs placebo, P 0.0154): −3.9% | Saturated, proportion to total fatty acids, Mean placebo-adjusted percent change from baseline (RBCs, IPE 4 g/day vs placebo, P 0.1145): 1.9% | Total omega-6, proportion to total fatty acids, Mean placebo-adjusted percent change from baseline (RBCs, IPE 4 g/day vs placebo, P <0.0001): −17.3% | AA Mean placebo-adjusted percent change from baseline (red blood cell, IPE 2 g/day vs placebo, week 12, P 0.0008): −8.0% | Linoleic Mean placebo-adjusted percent change from baseline (red blood cell, IPE 2 g/day vs placebo, week 12, P 0.1278): −4.7% | Oleic Mean placebo-adjusted percent change from baseline (red blood cell, IPE 2 g/day vs placebo, week 12, P 0.3736): −2.1% | DHA Mean placebo-adjusted percent change from baseline (red blood cell, IPE 2 g/day vs placebo, week 12, P 0.5859): −1.8% | Stearic Mean placebo-adjusted percent change from baseline (red blood cell, IPE 2 g/day vs placebo, week 12, P 0.5886): 1.1% | Palmitic Mean placebo-adjusted percent change from baseline (red blood cell, IPE 2 g/day vs placebo, week 12, P 0.9465): −0.1% | DPAn-3 Mean placebo-adjusted percent change from baseline (red blood cell, IPE 2 g/day vs placebo, week 12, P <0.0001): 86.4% | DHA Mean placebo-adjusted percent change from baseline (red blood cell, IPE 4 g/day vs placebo, week 12, P 0.1216): −5.2% | Oleic Mean placebo-adjusted percent change from baseline (red blood cell, IPE 4 g/day vs placebo, week 12, P 0.1325): −3.7% | Palmitic Mean placebo-adjusted percent change from baseline (red blood cell, IPE 4 g/day vs placebo, week 12, P 0.7427): −0.7% | Stearic Mean placebo-adjusted percent change from baseline (red blood cell, IPE 4 g/day vs placebo, week 12, P 0.7565): −0.7% | DPAn-3 Mean placebo-adjusted percent change from baseline [1]: 105.6% | Linoleic Mean placebo-adjusted percent change from baseline [1]: −13.0%
